# How the values were obtained:
# ECa-109 cell line = assay: Cytotoxicity against human Eca-109 cells assessed as reduction in cell viability incubated for 72 hrs by MTT assay; format: functional, cell-based; settings: ECa-109, 72 h
# MGC-803 = assay: Cytotoxicity against human MGC-803 cells assessed as reduction in cell viability incubated for 72 hrs by MTT assay; format: functional, cell-based; settings: MGC-803, 72 h
# PC-3 = assay: Cytotoxicity against human PC-3 cells assessed as reduction in cell viability incubated for 72 hrs by MTT assay; format: functional, cell-based; settings: PC-3, 72 h
# MCF7 [1] = assay: Cytotoxicity against human MCF7 cells assessed as reduction in cell viability incubated for 72 hrs by MTT assay; format: functional, cell-based; settings: MCF7, 72 h
# A549 = assay: Cytotoxicity against human A549 cells assessed as reduction in cell viability incubated for 72 hrs by MTT assay; format: functional, cell-based; settings: A549, 72 h
# MCF7 [2] = assay: Antiproliferative activity against human MCF7 cells assessed as reduction in cell growth incubated for 48 hrs by MTT assay; format: functional, cell-based; settings: MCF7, 48 h
# SK-OV-3 = assay: Antiproliferative activity against human SK-OV-3 cells assessed as reduction in cell growth incubated for 48 hrs by MTT assay; format: functional, cell-based; settings: SK-OV-3, 48 h
# HeLa = assay: Antiproliferative activity against human HeLa cells assessed as reduction in cell growth incubated for 48 hrs by MTT assay; format: functional, cell-based
# HepG2 = assay: Antiproliferative activity against human HepG2 cells assessed as reduction in cell growth incubated for 48 hrs by MTT assay; format: functional, cell-based; settings: HepG2, 48 h
# [3] = Cytotoxicity against human HEp-2 cells assessed as reduction in cell viability incubated for 48 hrs by MTT assay; format: toxicity, cell-based
# [4] = Acute toxicity in ip dosed albino rat administered twice daily for 14 days; format: organism-based; settings: in vivo, time 14 day
# Rattus norvegicus [5] = assay: Anti-androgen activity against albino rat assessed as mass gain of prostate gland at 0.1 mg/kg, sc administered for 7 days; format: functional; settings: time 7 day
# Rattus norvegicus [6] = species on record: Rattus norvegicus; assay: Ratio of anti-anabolic activity against albino rat assessed as reduction in mass of levator ani-muscle to anti-androgenic activity against albino rat assessed as mass gain of prostate gland; format: functional
SMILES,IC50 (ECa-109 cell line) [µM],IC50 (MGC-803) [µM],IC50 (PC-3) [µM],IC50 (MCF7 [1]) [µM],IC50 (A549) [µM],IC50 (MCF7 [2]) [µM],IC50 (SK-OV-3) [µM],IC50 (HeLa) [µM],IC50 (HepG2) [µM],also measured
C[C@]12CC[C@H]3[C@@H](CC=C4C[C@@H](O)CC[C@@]43C)[C@@H]1CC[C@@H]2c1cc(-c2ccnc(Br)c2)c(C#N)c(N)n1,22.3,19.7,7,> 64,43.6,–,–,–,–,–
COc1ccccc1-c1cc([C@H]2CC[C@H]3[C@@H]4CC=C5C[C@@H](O)CC[C@]5(C)[C@H]4CC[C@]23C)nc(N)c1C#N,19.7,17,8,45.2,20.7,–,–,–,–,–
C[C@]12CC[C@H]3[C@@H](CC=C4C[C@@H](O)CC[C@@]43C)[C@@H]1CC[C@@H]2c1cc(-c2ccc(F)c(Br)c2)c(C#N)c(N)n1,> 64,> 64,5.9,37.3,56.2,–,–,–,–,–
C[C@]12CC[C@H]3[C@@H](CC=C4C[C@@H](O)CC[C@@]43C)[C@@H]1CC[C@@H]2c1cc(-c2c(F)cccc2F)c(C#N)c(N)n1,> 64,8.8,2,11.6,17.3,–,–,–,–,–
C[C@]12CC[C@H]3[C@@H](CC=C4C[C@@H](O)CC[C@@]43C)[C@@H]1CC[C@@H]2c1cc(-c2ccccc2Cl)c(C#N)c(N)n1,30.1,8.4,3.7,18.8,33.3,–,–,–,–,–
C[C@]12CC[C@H]3[C@@H](CC=C4C[C@@H](O)CC[C@@]43C)[C@@H]1CC[C@@H]2c1cc(-c2ccco2)c(C#N)c(N)n1,–,–,–,–,–,18.8,13.9,16.3,25.8,–
C[C@]12CC[C@H]3[C@@H](CC=C4C[C@@H](O)CC[C@@]43C)[C@@H]1CC[C@@H]2c1cc(-c2cccc(OCc3ccccc3)c2)c(C#N)c(N)n1,–,–,–,–,–,41.1,21.8,22,21.5,–
C[C@]12CC[C@H]3[C@@H](CC=C4C[C@@H](O)CC[C@@]43C)[C@@H]1CC[C@@H]2c1cc(-c2cccc(Br)c2)c(C#N)c(N)n1,–,–,–,–,–,28.9,17.7,46.5,41.2,–
C[C@]12CC[C@H]3[C@@H](CC=C4C[C@@H](O)CC[C@@]43C)[C@@H]1CC[C@@H]2c1cc(-c2cccnc2)c(C#N)c(N)n1,–,–,–,–,–,30.2,92.2,105,75.5,–
C[C@]12CC[C@H]3[C@@H](CC=C4C[C@@H](O)CC[C@@]43C)[C@@H]1CC[C@@H]2c1cc(-c2ccc(OCc3ccccc3)cc2)c(C#N)c(N)n1,–,–,–,–,–,19,26.1,63.2,15.9,–
C[C@]12CC[C@H]3[C@@H](CC=C4C[C@@H](O)CC[C@@]43C)[C@@H]1CC[C@@H]2c1cc(-c2cccc(Cl)c2)c(C#N)c(N)n1,> 64,> 64,9.7,29,30.3,–,–,–,–,–
C[C@]12CC[C@H]3[C@@H](CC=C4C[C@@H](O)CC[C@@]43C)[C@@H]1CC[C@@H]2c1cc(-c2ccccc2Br)c(C#N)c(N)n1,–,–,–,–,–,33.9,11.2,18.6,28.4,–
C[C@]12CC[C@H]3[C@@H](CC=C4C[C@@H](O)CC[C@@]43C)[C@@H]1CC[C@@H]2c1cc(-c2ccc(F)cc2F)c(C#N)c(N)n1,58,22.7,3.5,30.3,> 64,–,–,–,–,–
C[C@]12CC[C@H]3[C@@H](CC=C4C[C@@H](O)CC[C@@]43C)[C@@H]1CC[C@@H]2c1cc(-c2cccc(O)c2)c(C#N)c(N)n1,–,–,–,–,–,6.28,7.02,7.36,13.8,–
COc1ccc(-c2cc([C@H]3CC[C@H]4[C@@H]5CC=C6C[C@@H](O)CC[C@]6(C)[C@H]5CC[C@]34C)nc(N)c2C#N)cc1O,–,–,–,–,–,17,17.3,15,50.2,–
COc1ccccc1-c1cc([C@H]2CC[C@H]3[C@@H]4CC=C5C[C@@H](OC(C)=O)CC[C@]5(C)[C@H]4CC[C@]23C)nc(N)c1C#N,–,–,–,–,–,–,–,–,–,CC50 at 48 h [3]: 299 µM
COc1ccc(-c2cc([C@H]3CC[C@H]4[C@@H]5CC=C6C[C@@H](O)CC[C@]6(C)[C@H]5CC[C@]34C)nc(N)c2C#N)cc1,> 64,57.8,5.7,51.1,> 64,101,32.5,40.3,34.8,–
COc1ccc(-c2cc([C@H]3CC[C@H]4[C@@H]5CC=C6C[C@@H](OC(C)=O)CC[C@]6(C)[C@H]5CC[C@]34C)nc(N)c2C#N)cc1,–,–,–,–,–,–,–,–,–,CC50 at 48 h [3]: > 400 µM

SMILES,IC50 (ECa-109 cell line) [µM],IC50 (MGC-803) [µM],IC50 (PC-3) [µM],IC50 (MCF7 [1]) [µM],IC50 (A549) [µM],IC50 (MCF7 [2]) [µM],IC50 (SK-OV-3) [µM],IC50 (HeLa) [µM],IC50 (HepG2) [µM],also measured
COc1cccc(-c2cc([C@H]3CC[C@H]4[C@@H]5CC=C6C[C@@H](OC(C)=O)CC[C@]6(C)[C@H]5CC[C@]34C)nc(N)c2C#N)c1,–,–,–,–,–,–,–,–,–,CC50 at 48 h [3]: 160 µM
C[C@]12CC[C@H]3[C@@H](CC=C4C[C@@H](O)CC[C@@]43C)[C@@H]1CC[C@@H]2c1cc(-c2ccccc2F)c(C#N)c(N)n1,17.8,9.4,3.2,10.1,28.8,–,–,–,–,–
C[C@]12CC[C@H](O)C[C@@H]1CC[C@@H]1[C@@H]2CC[C@]2(C)c3c(c(-c4ccccc4)[nH]c(=O)c3C#N)C[C@@H]12,–,–,–,–,–,–,–,–,–,LD50 at 336 h [4]: 4920 mg/kg; Activity (Rattus norvegicus [5]): 0.234 g; Ratio (Rattus norvegicus [6]): 11.3
CC(=O)O[C@H]1CC[C@@]2(C)C(=CC[C@H]3[C@@H]4CC[C@H](c5cc(-c6cccc(Cl)c6)c(C#N)c(N)n5)[C@@]4(C)CC[C@@H]32)C1,–,–,–,–,–,–,–,–,–,CC50 at 48 h [3]: 181 µM
C[C@]12CC[C@H]3[C@@H](CC=C4C[C@@H](O)CC[C@@]43C)[C@@H]1CC[C@@H]2c1cc(-c2ccc(Cl)cc2)c(C#N)c(N)n1,48.9,55,15.7,26.2,43.9,–,–,–,–,–
COc1cccc(-c2cc([C@H]3CC[C@H]4[C@@H]5CC=C6C[C@@H](O)CC[C@]6(C)[C@H]5CC[C@]34C)nc(N)c2C#N)c1,> 64,> 64,7.5,27.4,> 64,–,–,–,–,–
C[C@]12CC[C@H]3[C@@H](CC=C4C[C@@H](O)CC[C@@]43C)[C@@H]1CC[C@@H]2c1cc(-c2ccc(Br)cc2)c(C#N)c(N)n1,–,–,–,–,–,12,7.66,12.2,15.2,–
CC(=O)O[C@H]1CC[C@@]2(C)C(=CC[C@H]3[C@@H]4CC[C@H](c5cc(-c6ccc(Cl)cc6)c(C#N)c(N)n5)[C@@]4(C)CC[C@@H]32)C1,–,–,–,–,–,–,–,–,–,CC50 at 48 h [3]: 252 µM
CCOc1ccc(-c2cc([C@H]3CC[C@H]4[C@@H]5CC=C6C[C@@H](O)CC[C@]6(C)[C@H]5CC[C@]34C)nc(N)c2C#N)cc1,–,–,–,–,–,31.2,28.3,26.7,26.7,–
COc1ccc(-c2cc([C@H]3CC[C@H]4[C@@H]5CC=C6C[C@@H](O)CC[C@]6(C)[C@H]5CC[C@]34C)nc(N)c2C#N)cc1OC,–,–,–,–,–,107,29.5,107,55.4,–
C[C@]12CC[C@H]3[C@@H](CC=C4C[C@@H](O)CC[C@@]43C)[C@@H]1CC[C@@H]2c1cc(-c2ccccc2)c(C#N)c(N)n1,> 64,10.9,3.2,16,43.2,15.5,13.1,14.6,23.8,–
C[C@]12CC[C@H]3[C@@H](CC=C4C[C@@H](O)CC[C@@]43C)[C@@H]1CC[C@@H]2c1cc(-c2ccncc2)c(C#N)c(N)n1,–,–,–,–,–,47.8,18.9,73.3,103,–
CC(=O)O[C@H]1CC[C@@]2(C)C(=CC[C@H]3[C@@H]4CC[C@H](c5cc(-c6c(F)cccc6F)c(C#N)c(N)n5)[C@@]4(C)CC[C@@H]32)C1,–,–,–,–,–,–,–,–,–,CC50 at 48 h [3]: 374 µM
CC(=O)O[C@H]1CC[C@@]2(C)C(=CC[C@H]3[C@@H]4CC[C@H](c5cc(-c6ccccc6)c(C#N)c(N)n5)[C@@]4(C)CC[C@@H]32)C1,–,–,–,–,–,–,–,–,–,CC50 at 48 h [3]: 227 µM
CC(=O)O[C@H]1CC[C@@]2(C)C(=CC[C@H]3[C@@H]4CC[C@H](c5cc(-c6ccc(F)cc6F)c(C#N)c(N)n5)[C@@]4(C)CC[C@@H]32)C1,–,–,–,–,–,–,–,–,–,CC50 at 48 h [3]: 174 µM
CC(=O)O[C@H]1CC[C@@]2(C)C(=CC[C@H]3[C@@H]4CC[C@H](c5cc(-c6ccc(C#N)cc6)c(C#N)c(N)n5)[C@@]4(C)CC[C@@H]32)C1,–,–,–,–,–,–,–,–,–,CC50 at 48 h [3]: 39.3 µM
C[C@]12CC[C@H]3[C@@H](CC=C4C[C@@H](O)CC[C@@]43C)[C@@H]1CC[C@@H]2c1cc(-c2ccc(OCc3ccccc3)c(OCc3ccccc3)c2OCc2ccccc2)c(C#N)c(N)n1,–,–,–,–,–,105,33.9,38.9,41.4,–

# From ChEMBL document CHEMBL5329192, “Synthesis, biological activities, and future perspectives of steroidal monocyclic pyridines” (RSC Med Chem, 2023)
